Reference: patent publication US20070225351A1, “Methods and compositions for controlling body weight and appetite” (priority 2002, published 2007)

Test: in vivo
Assay type: in vivo
Method: Eighteen male and eighteen female beagle dogs were received from Ridglan Farms, Mt. Horeb, Wis. […] Each group consisted of four males and four females. All animals/sex/group were scheduled for the primary necropsy at the end of the 13-week treatment period.
The animals were observed twice daily for mortality and moribundity. Clinical examinations were performed daily at the time of dosing and approximately 1-2 and approximately 3 hours following dose administration. Detailed physical examinations were performed weekly. Clinical pathology evaluations (hematology, serum chemistry and urinalysis) were performed prior to the initiation of dose administration (study week-1) and prior to the scheduled necropsy (study week 13). Individual body weights were recorded weekly, beginning approximately two weeks prior to test article administration (study week-2). Mean body weights and mean body weight changes were calculated for each corresponding interval. Final body weights (fasted) were recorded prior to the scheduled necropsy. […] Gross lesions were also examined from the 2.0 and 6.0 mg/kg/day groups.

Cl.Clc1ccc([C@@]23CNC[C@@H]2C3)cc1Cl (single isomer, unassigned) [(+)-1-(3,4-dichlorophenyl)-3-azabicyclo[3.1.0]hexane hydrochloride]
weekly food consumption, MEAN (female dogs, 20 MG/KG/DAY, WEEK 11 TO 12): 305. C/ANIMAL/DAY
weekly food consumption, MEAN (female dogs, 20 MG/KG/DAY, WEEK 12 TO 13): 249. C/ANIMAL/DAY
mean total cumulative body weight change, lower than control (male dogs, 20 mg/kg/day, end of 13-week study (body weight loss)): 120%
mean food consumption, lower than control (male dogs, 20 mg/kg/day, first week of dose administration): 33%
food consumption, less than control values (male dogs, 20 mg/kg/day, generally, throughout the study): at least 10%
mean body weight, lower than control (male dogs, 20 mg/kg/day, study week 13): 13%
mean food consumption, lower than control (male dogs, 20 mg/kg/day, study weeks 6 to 13 except week 8 to 9, not statistically significant): at least 10%
weekly food consumption, MEAN (male dogs, 2.0 MG/KG/DAY group, WEEK −1 TO 0 (before dosing)): 339. C/ANIMAL/DAY
weekly food consumption, MEAN (male dogs, 2.0 MG/KG/DAY, WEEK 0 TO 1): 320. C/ANIMAL/DAY
weekly food consumption, MEAN (male dogs, 2.0 MG/KG/DAY, WEEK 1 TO 2): 354. C/ANIMAL/DAY
weekly food consumption, MEAN (male dogs, 2.0 MG/KG/DAY, WEEK 2 TO 3): 373. C/ANIMAL/DAY
weekly food consumption, MEAN (male dogs, 2.0 MG/KG/DAY, WEEK 3 TO 4): 366. C/ANIMAL/DAY
weekly food consumption, MEAN (male dogs, 2.0 MG/KG/DAY, WEEK 4 TO 5): 369. C/ANIMAL/DAY
weekly food consumption, MEAN (male dogs, 2.0 MG/KG/DAY, WEEK 5 TO 6): 360. C/ANIMAL/DAY
weekly food consumption, MEAN (male dogs, 2.0 MG/KG/DAY, WEEK 6 TO 7): 393. C/ANIMAL/DAY
weekly food consumption, MEAN (male dogs, 2.0 MG/KG/DAY, WEEK 7 TO 8): 360. C/ANIMAL/DAY
weekly food consumption, MEAN (male dogs, 2.0 MG/KG/DAY, WEEK 8 TO 9): 388. C/ANIMAL/DAY
weekly food consumption, MEAN (male dogs, 2.0 MG/KG/DAY, WEEK 9 TO 10): 375. C/ANIMAL/DAY
weekly food consumption, MEAN (male dogs, 2.0 MG/KG/DAY, WEEK 10 TO 11): 389. C/ANIMAL/DAY
weekly food consumption, MEAN (male dogs, 2.0 MG/KG/DAY, WEEK 12 TO 13): 355. C/ANIMAL/DAY
weekly food consumption, MEAN (male dogs, 6.0 MG/KG/DAY group, WEEK −1 TO 0 (before dosing)): 331. C/ANIMAL/DAY
weekly food consumption, MEAN (male dogs, 6.0 MG/KG/DAY, WEEK 0 TO 1): 351. C/ANIMAL/DAY
weekly food consumption, MEAN (male dogs, 6.0 MG/KG/DAY, WEEK 1 TO 2): 370. C/ANIMAL/DAY
weekly food consumption, MEAN (male dogs, 6.0 MG/KG/DAY, WEEK 3 TO 4): 380. C/ANIMAL/DAY
weekly food consumption, MEAN (male dogs, 6.0 MG/KG/DAY, WEEK 4 TO 5): 350. C/ANIMAL/DAY
weekly food consumption, MEAN (male dogs, 6.0 MG/KG/DAY, WEEK 5 TO 6): 374. C/ANIMAL/DAY
weekly food consumption, MEAN (male dogs, 6.0 MG/KG/DAY, WEEK 6 TO 7): 381. C/ANIMAL/DAY
weekly food consumption, MEAN (male dogs, 6.0 MG/KG/DAY, WEEK 7 TO 8): 356. C/ANIMAL/DAY
weekly food consumption, MEAN (male dogs, 6.0 MG/KG/DAY, WEEK 8 TO 9): 368. C/ANIMAL/DAY
weekly food consumption, MEAN (male dogs, 6.0 MG/KG/DAY, WEEK 9 TO 10): 360. C/ANIMAL/DAY
weekly food consumption, MEAN (male dogs, 6.0 MG/KG/DAY, WEEK 10 TO 11): 367. C/ANIMAL/DAY
weekly food consumption, MEAN (male dogs, 6.0 MG/KG/DAY, WEEK 11 TO 12): 357. C/ANIMAL/DAY
weekly food consumption, MEAN (male dogs, 6.0 MG/KG/DAY, WEEK 12 TO 13): 331. C/ANIMAL/DAY
weekly food consumption, MEAN (male dogs, 20 MG/KG/DAY group, WEEK −1 TO 0 (before dosing)): 337. C/ANIMAL/DAY
weekly food consumption, MEAN (male dogs, 20 MG/KG/DAY, WEEK 0 TO 1): 228.* C/ANIMAL/DAY
weekly food consumption, MEAN (male dogs, 20 MG/KG/DAY, WEEK 1 TO 2): 319. C/ANIMAL/DAY
weekly food consumption, MEAN (male dogs, 20 MG/KG/DAY, WEEK 2 TO 3): 326. C/ANIMAL/DAY
weekly food consumption, MEAN (male dogs, 20 MG/KG/DAY, WEEK 3 TO 4): 357. C/ANIMAL/DAY
weekly food consumption, MEAN (male dogs, 20 MG/KG/DAY, WEEK 4 TO 5): 356. C/ANIMAL/DAY
weekly food consumption, MEAN (male dogs, 20 MG/KG/DAY, WEEK 5 TO 6): 331. C/ANIMAL/DAY
weekly food consumption, MEAN (male dogs, 20 MG/KG/DAY, WEEK 6 TO 7): 328. C/ANIMAL/DAY
weekly food consumption, MEAN (male dogs, 20 MG/KG/DAY, WEEK 7 TO 8): 325. C/ANIMAL/DAY
weekly food consumption, MEAN (male dogs, 20 MG/KG/DAY, WEEK 8 TO 9): 375. C/ANIMAL/DAY
weekly food consumption, MEAN (male dogs, 20 MG/KG/DAY, WEEK 9 TO 10): 322. C/ANIMAL/DAY
weekly food consumption, MEAN (male dogs, 20 MG/KG/DAY, WEEK 10 TO 11): 350. C/ANIMAL/DAY
weekly food consumption, MEAN (male dogs, 20 MG/KG/DAY, WEEK 11 TO 12): 305. C/ANIMAL/DAY
weekly food consumption, MEAN (male dogs, 20 MG/KG/DAY, WEEK 12 TO 13): 249. C/ANIMAL/DAY
